Results taken from paper PMC9603588, “Structural Basis of Peptide-Based Antimicrobial Inhibition of a Resistance-Nodulation-Cell Division Multidrug Efflux Pump” (Microbiology Spectrum, 2022).
In brackets after ≈: the same amount, converted by molar mass. Read-outs that look alike come from different tables or passages of the source.

Experiments:
[1] = molecular target: MtrD_(CR103) multidrug efflux pump (MtrD from N. gonorrhoeae strain CR.103) (Neisseria gonorrhoeae strain CR.103) (UniProt Q51073); test: cryo-EM structure; 2 μM MtrD_(CR103)-nanodisc sample incubated with 100 μM CASP, 20 μM Col or 50 μM LL for 2 h; single-particle cryo-EM
[2] = tested on: E. coli BL21(DE3) ΔacrB/pACYCΩmtrCDE; test: MIC of antibiotics for E. coli BL21(DE3) ΔacrB/pACYCΩmtrCDE; assay type: cell-based; details: Escherichia coli
[3] = tested on: S. enterica subsp. enterica; test: MIC of Nov for S. enterica subsp. enterica; assay type: cell-based; details: Salmonella enterica
E. coli K-12 = test: MIC of Nov for E. coli K-12; assay type: cell-based; details: Escherichia coli, K12
N. subflava ATCC 49275 = test: MIC of Nov for N. subflava; assay type: cell-based; details: Neisseria subflava, ATCC49275
N. gonorrhoeae WHO X = test: Nov MIC against gonococci by agar dilution, WHO X; assay type: cell-based; details: Neisseria gonorrhoeae, strain WHO X
Experimental: (§1) The MICs for Nov were determined by agar dilution as described previously ([53]). The construction of the mtrD::kan transformants was described previously ([3], [61]); note that WHO X was originally termed H041.

[4] = tested on: N. gonorrhoeae WHO X mtrD::kan; test: Nov MIC against gonococci by agar dilution, WHO X mtrD::kan; assay type: cell-based; details: Neisseria gonorrhoeae
Experimental: as §1

[5] = tested on: N. gonorrhoeae FA19 mtrD::kan; test: Nov MIC against gonococci by agar dilution, FA19 mtrD::kan; assay type: cell-based; details: Neisseria gonorrhoeae
Experimental: as §1

N. gonorrhoeae FA19 = test: Nov MIC against gonococci by agar dilution, FA19; assay type: cell-based; details: Neisseria gonorrhoeae, strain FA19
Experimental: as §1

P. aeruginosa = test: MIC of Nov for P. aeruginosa; assay type: cell-based; details: Pseudomonas aeruginosa
E. coli K-12 ΔtolC::kan = test: MIC of Nov for E. coli K-12 ΔtolC::kan; assay type: cell-based; details: Escherichia coli, read-out: MIC of Nov

MtrD_(CR103) multidrug efflux pump (MtrD from N. gonorrhoeae strain CR.103) (from UniProt Q51073 1-1067) (natural protein)
stoichiometry N [1]: 3

CO[C@@H]1[C@@H](OC(N)=O)[C@@H](O)[C@H](Oc2ccc3c(O)c(NC(=O)c4ccc(O)c(CC=C(C)C)c4)c(=O)oc3c2C)OC1(C)C [Nov, novobiocin]
MIC ([2]; read-out: MIC for Nov): 125 µg/mL | MIC [3]: 512 µg/mL | MIC (E. coli K-12): > 128 µg/mL | MIC (N. subflava ATCC 49275): 1 µg/mL | MIC (N. gonorrhoeae WHO X): 1 µg/mL (≈ 1.63 µM) | MIC [4]: 0.25 µg/mL (≈ 0.408 µM) | MIC [5]: 0.06 µg/mL (≈ 0.0979 µM) | MIC (N. gonorrhoeae FA19): 0.25 µg/mL (≈ 0.408 µM) | MIC (P. aeruginosa): > 1000 µg/mL | MIC (E. coli K-12 ΔtolC::kan): 4 µg/mL

[H]/N=C(/N)N[C@H]1[C@H](O)[C@@H](O)[C@H](O[C@@H]2O[C@@H](C)[C@](O)(C=O)[C@H]2O[C@@H]2O[C@@H](CO)[C@H](O)[C@@H](O)[C@@H]2NC)[C@@H](N/C(N)=N\[H])[C@@H]1O [streptomycin]
MIC ([2]; read-out: MIC of streptomycin): 8 µg/mL
